# Source: publication PMC9025336 (Antibiotics, 2022)
# Peptide text beside a SMILES is read from it. * marks the point of attachment. Orn(α-tetramethylguanidino) = CN(C)C(=N[C@@H](CCCN)C(=O)*)N(C)C
# How the values were obtained:
# E. coli BW25113 = format: cell-based, Escherichia coli; details: for MIC, BW: BW25113, 2 h
# Method: (§1) The minimal inhibitory concentrations (MIC) were determined at least twice in triplicate using a liquid broth microdilution assay in sterile 96-well plates and a total volume of 100 μL per well. Aqueous peptide solutions were serially 2-fold diluted in 25% MHBII or 33% TSB medium in a volume of 50 µL. An overnight culture was diluted in 25% MHBII or 33% TSB medium to 1.5 × 10^7 CFU/mL, and an aliquot of 50 μL was added to each well. The final cell count in each well was 7.5 × 10^6 CFU/mL. […] The turbidity of each well was measured at a wavelength of 600 nm. The MIC was defined as the lowest peptide concentration where the turbidity was identical to medium only.
# [1] = system: 70S ribosome extract of E. coli BW25113; test: Fluorescence polarization, Kd of cf-labeled peptides; format: binding, Escherichia coli; details: determined for the cf-labeled peptide; BW25113 ribosome extract; 28 °C, 90 min; 95% confidence interval in brackets; triplicate on at least two days; read-out: Kd, BW
# Method: (§2) E. coli BW25113 and E. coli Rosetta pLysS were cultivated in LB medium and harvested at an OD600 of ~4 by centrifugation (5000× g, 30 min, 4 °C). The cell pellets were washed by resuspension in ribosome preparation buffer (20 mmol/L Hepes-KOH, 6 mmol/L MgCl2, 30 mmol/L NH4Cl, pH 7.6, 4°C) and subsequent centrifugation (5000× g, 30 min, 4 °C). Cell pellets were suspended in ribosome preparation buffer ([…]) containing freshly added 2-mercapotethanol (4 mmol/L). Lysozyme was added to the resuspended cells and incubated on ice for 30 min. The cell suspension was disrupted six times using a FastPrep-24^TM 5G instrument (MP Biomedicals, Solon, OH, USA) with BigPrep 50 mL setting (40 s, 4.0 m/s), incubated with DNase I (5 mL/L) on ice for one hour and centrifuged (16,000× g, 30 min, 4 °C). The cell debris was removed from the supernatant by centrifugation (32,000× g, 60 min, 4 °C), and the supernatant was centrifuged again (165,000× g, 17 h, 4 °C). The pellet was resuspended in ribosome preparation buffer (0.1 mL per g cell pellet) to obtain the 70S ribosome extract and stored at −80 °C. The ribosome concentration was estimated by recording the absorbance at 260 nm (1 AU for a ribosome concentration of 28 nmol/L). The molecular weight of the 70S E. coli ribosome was assumed to be 2.3 MDa.
# (§3) Kd was determined using a ribosome extract and cf-labeled peptides in ribosome preparation buffer. Briefly, black 384-well plates (flat bottom, Greiner Bio-One GmbH) were blocked with casein (0.5%, w/v) in phosphate buffer containing 0.05% (v/v) Tween 20 at 4 °C overnight and washed three times with phosphate buffer. A 2-fold dilution series of the ribosome extract (20 μL per well) in ribosome preparation buffer was prepared in a black 384-well plate (23 dilution steps). The cf-labeled peptide was dissolved in ribosome preparation buffer (20 μL, 40 nmol/L), added to each well, and incubated at 28 ± 1 °C. After 90 min, the fluorescence polarization was measured on a PARADIGMTM microplate reader (Beckman Coulter, Salzburg, Austria) in the top read position (λexc = 485 nm, λem = 535 nm) in triplicate on at least two different days. Data were fitted to a nonlinear, dose–response logistical transition equation [y= y0 + a/(1 + (x/x0)b)] using the Levenberg–Marquardt algorithm, with dissociation constants (Kd) represented by the x0 coefficients (GraphPad Prism for Windows v. 5.02, San Diego, CA, USA).
# E. coli Rosetta = test: Uptake of cf-labeled PrAMPs; format: cell-based, Escherichia coli
# Method: Bacteria were grown in 25% MHBII medium overnight, diluted fourfold with fresh medium, and incubated to obtain an OD600 of ~1. The cultures were adjusted to an OD600 of 1, and cf-labeled peptide was added to achieve a final concentration of 23 µmol/L (~64 µg/mL). After 0 min, 90 min, and 180 min, two aliquots (300 µL) of the culture were transferred to two tubes. One tube was immediately stored on ice in the dark. The second sample was centrifuged (10,000× g, 4 °C, 3 min), and the supernatant was transferred to a fresh tube and stored on ice in the dark. The pellet was washed with ice cold PBS (300 µL) and centrifuged (10,000× g, 4 °C, 3 min), and the supernatant was transferred into a fresh tube. Both the supernatant and the pellet resuspended in 300 µL ice cold PBS were stored on ice in the dark. After 180 min, an aliquot of the unprocessed sample (100 µL) was transferred to a translucent 96-well plate, and the absorbance was measured at 600 nm. Aliquots (100 µL) of the original cell culture, supernatants, wash solutions, and resuspended pellets were transferred into black 96-well plates to measure the fluorescence in a PARADIGM^TM microplate reader in the top read position (λexc = 485 nm, λem = 535 nm). Experiments were performed three times on different days. The relative fluorescence units were normalized to the measured OD600 values of the cell culture.
# [2] = system: E. coli Rosetta DE3 pLysS; test: MIC, liquid broth microdilution; format: cell-based, Escherichia coli; details: 25% MHBII medium, 7.5 × 10^6 CFU/mL, 37 °C, 20 ± 2 h, turbidity 600 nm, at least twice in triplicate
# Method: The minimal inhibitory concentrations (MIC) were determined at least twice in triplicate using a liquid broth microdilution assay in sterile 96-well plates and a total volume of 100 μL per well. Aqueous peptide solutions were serially 2-fold diluted in 25% MHBII or 33% TSB medium in a volume of 50 µL. An overnight culture was diluted in 25% MHBII or 33% TSB medium to 1.5 × 10^7 CFU/mL, and an aliquot of 50 μL was added to each well. The final cell count in each well was 7.5 × 10^6 CFU/mL. The plates were incubated at 37 °C for 20 ± 2 h. The turbidity of each well was measured at a wavelength of 600 nm. The MIC was defined as the lowest peptide concentration where the turbidity was identical to medium only.
# E. coli BL21 (DE3) = format: cell-based, Escherichia coli; details: BL21, 2 h
# Method: as §1
# [3] = system: 70S ribosome extract of E. coli Rosetta DE3 pLysS; test: Fluorescence polarization, Kd of cf-labeled peptides; format: binding, Escherichia coli; details: determined for the cf-labeled peptide, 28 °C, 90 min, 95% confidence interval in brackets, triplicate on at least two days, read-out: Kd, Ros
# Method: as §2, §3
# [4] = cf-labeled peptides 23 µmol/L, normalized fluorescence after 180 min
SMILES,"MIC, BW (E. coli BW25113)","less active against BW25113 than against Rosetta DE3 pLysS (fold, from MIC) (E. coli BW25113; ratio of MIC values, 25% MHBII)",Kd [1],uptake in E. coli Rosetta compared with Api137 (E. coli Rosetta; [4]),"MIC, Ros [2]","MIC, 25% MHBII (E. coli BL21 (DE3))","MIC, 33% TSB (E. coli BL21 (DE3))",Kd [3],"normalized uptake of E. coli Rosetta, in words (E. coli Rosetta; cf-labeled peptides 23 µmol/L, 0, 90, 180 min)",MIC in the parent E. coli BL21 strain (E. coli BL21 (DE3)),"uptake in E. coli Rosetta compared with E. coli BW25113 (E. coli Rosetta; cf-labeled peptide 23 µmol/L, normalized fluorescence (OD600) after 180 min)",uptake in E. coli Rosetta compared with Api88 (E. coli Rosetta; [4])
CC[C@H](C)[C@H](NC(=O)[C@H](Cc1ccc(O)cc1)NC(=O)[C@@H](NC(=O)[C@@H]1CCCN1C(=O)[C@H](CCCNC(=N)N)NC(=O)[C@H](CC(N)=O)NC(=O)[C@H](CC(N)=O)NC(=O)[C@H](CCCN)N=C(N(C)C)N(C)C)C(C)C)C(=O)N1CCC[C@H]1C(=O)N[C@@H](CCCNC(=N)N)C(=O)N1CCC[C@H]1C(=O)N[C@@H](CCCNC(=N)N)C(=O)N1CCC[C@H]1C(=O)N1CCC[C@H]1C(=O)N[C@@H](Cc1c[nH]cn1)C(=O)N1CCC[C@H]1C(=O)N[C@@H](CCCNC(=N)N)C(=O)N[C@@H](CC(C)C)C(N)=O [Api88] ({Orn(α-tetramethylguanidino)}-NNRPVYIPRPRPPHPRL-NH2),2 µg/mL,twofold,906 nM,two- to threefold higher,1 µg/mL,,,,,,,
CC[C@H](C)[C@H](NC(=O)[C@H](Cc1ccc(O)cc1)NC(=O)[C@@H](NC(=O)[C@@H]1CCCN1C(=O)[C@H](CCCNC(=N)N)NC(=O)[C@H](CC(N)=O)NC(=O)[C@H](CC(N)=O)NC(=O)[C@H](CCCN)N=C(N(C)C)N(C)C)C(C)C)C(=O)N1CCC[C@H]1C(=O)N[C@@H](CCCNC(=N)N)C(=O)N1CCC[C@H]1C(=O)N[C@@H](CCCNC(=N)N)C(=O)N1CCC[C@H]1C(=O)N1CCC[C@H]1C(=O)N[C@@H](Cc1c[nH]cn1)C(=O)N1CCC[C@H]1C(=O)N[C@@H](CCCNC(=N)N)C(=O)N[C@@H](CC(C)C)C(=O)O [Api137] ({Orn(α-tetramethylguanidino)}-NNRPVYIPRPRPPHPRL-OH),2 µg/mL,,382 nM,,2 µg/mL,4 µg/mL,2 µg/mL,198 nM,lowest uptake,,,
CC[C@H](C)[C@H](NC(=O)[C@@H]1CCCN1C(=O)[C@H](CCCNC(=N)N)NC(=O)[C@H](CC(N)=O)NC(=O)[C@H](CC(N)=O)NC(=O)CN)C(=O)N[C@@H](Cc1ccc(O)cc1)C(=O)N[C@H](C(=O)N1CCC[C@H]1C(=O)N[C@@H](CCCNC(=N)N)C(=O)N1CCC[C@H]1C(=O)N[C@@H](CCCNC(=N)N)C(=O)N1CCC[C@H]1C(=O)N1CCC[C@H]1C(=O)N[C@@H](Cc1c[nH]cn1)C(=O)N1CCC[C@H]1C(=O)N[C@@H](CCCNC(=N)N)C(=O)N1CCC[C@H]1C(=O)N[C@H](C(=O)N[C@@H](CCCNC(=N)N)C(=O)N[C@H](C(=O)O)C(C)C)[C@@H](C)CC)[C@@H](C)CC [Api805] (H-GNNRPIYIPRPRPPHPRPIRV-OH; N-terminus assumed),,,557 nM,fivefold higher,,4 µg/mL,2 µg/mL,515 nM,,2 to 4 µg/mL,approximately threefold higher,twofold higher
